System: 966289-007-R4-J1-PDC complex spheroid viability
Assay: Anticancer human tumor 966289-007-R4-J1-PDC patient-derived pancreatic adenocarcinoma cell line growth inhibition [GQUAD]
Details: for IC50: curve of first compound; for viability, T/C: stronger effect = lower value; active = viability on the fitted dose curve at most 10% of control; inactive = the rest
Procedure, shortened: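 Multi-cell-type spheroids of tumor cells with HUVEC and mesenchymal stem cells, treated with drug combinations. Concentrations descend in half-log steps from near clinical Cmax, or from 10 microM where Cmax is unknown; viability read-out.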

[1] = second compound 0.0316 µM, first compound 0.0316 µM
[2] = second compound 0.0316 µM, first compound 0.1 µM
[3] = second compound 0.0316 µM, first compound 0.316 µM
[4] = second compound 0.0316 µM, first compound 1 µM
[5] = second compound 0.0316 µM, first compound 3.16 µM
[6] = second compound 0.0316 µM, first compound 10 µM
[7] = second compound 0.1 µM, first compound 0.0316 µM
[8] = second compound 0.1 µM, first compound 0.1 µM
[9] = second compound 0.1 µM, first compound 0.316 µM
[10] = second compound 0.1 µM, first compound 1 µM
[11] = second compound 0.1 µM, first compound 3.16 µM
[12] = second compound 0.1 µM, first compound 10 µM
[13] = second compound 0.316 µM, first compound 0.0316 µM
[14] = second compound 0.316 µM, first compound 0.1 µM
[15] = second compound 0.316 µM, first compound 0.316 µM
[16] = second compound 0.316 µM, first compound 1 µM
[17] = second compound 0.316 µM, first compound 3.16 µM
[18] = second compound 0.316 µM, first compound 10 µM
[19] = second compound 1 µM, first compound 0.0316 µM
[20] = second compound 1 µM, first compound 0.1 µM
[21] = second compound 1 µM, first compound 0.316 µM
[22] = second compound 1 µM, first compound 1 µM
[23] = second compound 1 µM, first compound 3.16 µM
[24] = second compound 1 µM, first compound 10 µM
[25] = second compound 3.16 µM, first compound 0.0316 µM
[26] = second compound 3.16 µM, first compound 0.1 µM
[27] = second compound 3.16 µM, first compound 0.316 µM
[28] = second compound 3.16 µM, first compound 1 µM
[29] = second compound 3.16 µM, first compound 3.16 µM
[30] = second compound 3.16 µM, first compound 10 µM
[31] = second compound 10 µM, first compound 0.0316 µM
[32] = second compound 10 µM, first compound 0.1 µM
[33] = second compound 10 µM, first compound 0.316 µM
[34] = second compound 10 µM, first compound 1 µM
[35] = second compound 10 µM, first compound 3.16 µM
[36] = second compound 10 µM, first compound 10 µM
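Note: spheroids exposed to the agents for seven days before readout.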
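Throughout, for viability, T/C: percent viability relative to DMSO vehicle control wells taken as 100%.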

CC(=O)O[C@H]1C(=O)[C@@]2(C)[C@H]([C@H](OC(=O)c3ccccc3)[C@]3(O)C[C@H](OC(=O)[C@H](O)[C@@H](NC(=O)c4ccccc4)c4ccccc4)C(C)=C1C3(C)C)[C@]1(OC(C)=O)CO[C@@H]1C[C@@H]2O + CN(C)c1ccc(Nc2c3ccc(NC(=O)CCN4CCCC4)cc3nc3cc(NC(=O)CCN4CCCC4)ccc23)cc1
active: viability, T/C [1] 6.18% | viability, T/C [2] 3.03% | viability, T/C [3] 4.68% | viability, T/C [4] 5.91% | viability, T/C [5] 9.45% | viability, T/C [6] 14.6% | viability, T/C [7] 6.28% | viability, T/C [8] 3.31% | viability, T/C [9] 4.65% | viability, T/C [10] 7.21% | viability, T/C [11] 8.08% | viability, T/C [12] 13.5% | viability, T/C [13] 6.93% | viability, T/C [14] 3.41% | viability, T/C [15] 4.38% | viability, T/C [16] 6.89% | viability, T/C [17] 8.86% | viability, T/C [18] 12.6% | viability, T/C [19] 6.47% | viability, T/C [20] 3.38% | viability, T/C [21] 4.34% | viability, T/C [22] 6.41% | viability, T/C [23] 9.91% | viability, T/C [24] 12% | viability, T/C [25] 5.06% | viability, T/C [26] 3.06% | viability, T/C [27] 4.72% | viability, T/C [28] 6.71% | viability, T/C [29] 7.72% | viability, T/C [30] 11.3% | viability, T/C [31] 3.86% | viability, T/C [32] 2.35% | viability, T/C [33] 3.67% | viability, T/C [34] 4.43% | viability, T/C [35] 6.04% | viability, T/C [36] 6.46%
< 31.6 nM: IC50 (second compound 0.0316 µM) | IC50 (second compound 0.1 µM) | IC50 (second compound 0.316 µM) | IC50 (second compound 1 µM) | IC50 (second compound 3.16 µM) | IC50 (second compound 10 µM)

CCCS(=O)(=O)Nc1ccc(F)c(C(=O)c2c[nH]c3ncc(-c4ccc(Cl)cc4)cc23)c1F + CN(C)c1ccc(Nc2c3ccc(NC(=O)CCN4CCCC4)cc3nc3cc(NC(=O)CCN4CCCC4)ccc23)cc1
5670 nM: IC50 (second compound 3.16 µM)
7410 nM: IC50 (second compound 0.316 µM)
6870 nM: IC50 (second compound 1 µM)
7340 nM: IC50 (second compound 0.0316 µM) | IC50 (second compound 0.1 µM)
2030 nM: IC50 (second compound 10 µM)
active: viability, T/C [30] 7.98% | viability, T/C [36] 0.53%
inactive: viability, T/C [1] 99.4% | viability, T/C [2] 97.3% | viability, T/C [3] 109% | viability, T/C [4] 103% | viability, T/C [5] 104% | viability, T/C [6] 30.5% | viability, T/C [7] 100% | viability, T/C [8] 101% | viability, T/C [9] 99.3% | viability, T/C [10] 102% | viability, T/C [11] 107% | viability, T/C [12] 30.8% | viability, T/C [13] 100% | viability, T/C [14] 105% | viability, T/C [15] 103% | viability, T/C [16] 106% | viability, T/C [17] 102% | viability, T/C [18] 31.8% | viability, T/C [19] 92.2% | viability, T/C [20] 104% | viability, T/C [21] 109% | viability, T/C [22] 108% | viability, T/C [23] 103% | viability, T/C [24] 24.4% | viability, T/C [25] 99.8% | viability, T/C [26] 99.9% | viability, T/C [27] 110% | viability, T/C [28] 104% | viability, T/C [29] 93.4% | viability, T/C [31] 103% | viability, T/C [32] 102% | viability, T/C [33] 106% | viability, T/C [34] 103% | viability, T/C [35] 17.2%

Cc1[nH]c2ccccc2c1CCNCc1ccc(/C=C/C(=O)NO)cc1 + CN(C)c1ccc(Nc2c3ccc(NC(=O)CCN4CCCC4)cc3nc3cc(NC(=O)CCN4CCCC4)ccc23)cc1
46.9 nM: IC50 (second compound 10 µM)
active: viability, T/C [3] 5.05% | viability, T/C [9] 4.54% | viability, T/C [15] 3.99% | viability, T/C [21] 3.89% | viability, T/C [27] 1.84% | viability, T/C (second compound 10 µM, first compound 0.0999 µM) 2.99% | viability, T/C [33] 0.49%
54.3 nM: IC50 (second compound 3.16 µM)
75 nM: IC50 (second compound 0.316 µM)
68.4 nM: IC50 (second compound 0.1 µM)
inactive: viability, T/C (second compound 0.0316 µM, first compound 0.000999 µM) 106% | viability, T/C (second compound 0.0316 µM, first compound 0.00316 µM) 95.3% | viability, T/C (second compound 0.0316 µM, first compound 0.00999 µM) 109% | viability, T/C [1] 85.8% | viability, T/C (second compound 0.0316 µM, first compound 0.0999 µM) 40.2% | viability, T/C (second compound 0.1 µM, first compound 0.000999 µM) 106% | viability, T/C (second compound 0.1 µM, first compound 0.00316 µM) 102% | viability, T/C (second compound 0.1 µM, first compound 0.00999 µM) 109% | viability, T/C [7] 87.8% | viability, T/C (second compound 0.1 µM, first compound 0.0999 µM) 31.4% | viability, T/C (second compound 0.316 µM, first compound 0.000999 µM) 94.7% | viability, T/C (second compound 0.316 µM, first compound 0.00316 µM) 97.8% | viability, T/C (second compound 0.316 µM, first compound 0.00999 µM) 109% | viability, T/C [13] 101% | viability, T/C (second compound 0.316 µM, first compound 0.0999 µM) 33.1% | viability, T/C (second compound 1 µM, first compound 0.000999 µM) 98.9% | viability, T/C (second compound 1 µM, first compound 0.00316 µM) 100% | viability, T/C (second compound 1 µM, first compound 0.00999 µM) 108% | viability, T/C [19] 98.2% | viability, T/C (second compound 1 µM, first compound 0.0999 µM) 25% | viability, T/C (second compound 3.16 µM, first compound 0.000999 µM) 98.3% | viability, T/C (second compound 3.16 µM, first compound 0.00316 µM) 104% | viability, T/C (second compound 3.16 µM, first compound 0.00999 µM) 104% | viability, T/C [25] 81% | viability, T/C (second compound 3.16 µM, first compound 0.0999 µM) 14.8% | viability, T/C (second compound 10 µM, first compound 0.000999 µM) 100% | viability, T/C (second compound 10 µM, first compound 0.00316 µM) 104% | viability, T/C (second compound 10 µM, first compound 0.00999 µM) 108% | viability, T/C [31] 74.8%
78 nM: IC50 (second compound 0.0316 µM)
67.5 nM: IC50 (second compound 1 µM)
